Earlier results, collected in patent US11052154B2, “Ras protein degradation inducing molecule and pharmaceutical composition” (Tokyo University of Science Foundation, priority 2016, dated 2021).

Legend:
β2i = β2i (Homo sapiens, UniProt P40306); details: Table 18, 20S immunoproteasome inhibitor; cited from earlier work
β5i = β5i (Homo sapiens, UniProt P28062); details: Table 18, 20S immunoproteasome inhibitor; cited from earlier work

SMILES | Others: immunoproteasome subunit inhibited (β2i) (β2i) | Others: immunoproteasome subunit inhibited (β5i) (β5i)
CCCC[C@@H](C=O)NC(=O)[C@H](CC(C)C)NC(=O)OCc1ccccc1 [IPSI-001] | β2i is inhibited | 
COc1ccc(C[C@H](NC(=O)[C@H](C)NC(=O)CN2CCOCC2)C(=O)N[C@@H](Cc2ccccc2)C(=O)[C@@]2(C)CO2)cc1 [PR-957] |  | β5i is inhibited
